Usually Kd stands for the free concentration of one partner at which half of the binding sites on the other are occupied at equilibrium, for simple one-to-one binding.

Read-outs that look alike come from different tables or passages of the source. Ends that are not written are not given here.

Test [1] deals with T1, D(II) FGFR1 (Homo sapiens, UniProt P11362).
T1 construct: made in house
T1 sequence (P11362 158-246 limits assumed): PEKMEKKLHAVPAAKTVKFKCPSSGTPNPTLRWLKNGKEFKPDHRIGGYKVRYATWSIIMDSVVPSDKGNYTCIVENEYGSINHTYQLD
The test is described as follows: Miniaturized (10 μL) microplate thermal shift assay of D(II) FGFR1. The following applies: aprosulate 300 μM. The format is binding. How it is done: Recombinant D(II) FGFR1 was purified from inclusion bodies and purified by affinity chromatography on heparin sepharose. A stock solution of D(II) FGFR1 (15 mg/mL; 1.1 mM) was diluted to 50 μM in assay buffer (50 mM Hepes, pH 7.5, 0.1 M NaCl). The assay volume was 10 μL and the concentration of 1,8-ANS was 250 μM.

The target in test [2] is T2, thrombin (Homo sapiens, UniProt P00734). The following applies: 5 mM Tris buffer pH 8.0, 0.1% PEG, 25° C.; read-out: Kd of the Na+ binding site; cited from earlier work.
The target in test [3] is T3, chicken muscle pyruvate kinase (Gallus gallus, UniProt P00548).
T3 construct: purchased Sigma Chemical Co. P6406
The test is described as follows: Fluorescence signal of reporter dyes on thermal unfolding of pyruvate kinase. The following applies: wavelengths above 480 nm; excitation 370 nm. How it is done: A 0.2 mg/mL solution of chicken muscle pyruvate kinase (Sigma Chemical Co., catalog # P6406) was incubated with either 10 mM 1-anilinonaph-thalene-8-sulfonate (1,8-ANS) (FIG. 44, open squares) or 10 mM 5-(4″-dimethylaminophenyl)-2-(4′-phenyl)oxazole sulfonate (Molecular Probes catalogue no. D-12800) (FIG. 44, closed squares) in a 500 μL four-sided quartz cuvette. Fluorescence spectra were recorded using a spectrofluorimeter (Florolog, SPEX/ISA), with the excitation monochromator set to 370 nm, and the excitation and emission bandpass slit widths set at 1 nm, The instrument was operated in front-face collection mode, so that fluorescence was collected from the same face of the cuvette that was illuminated by the exciting light source. Emission spectra of native protein+dye were recorded after mixing the protein and dye solutions at room temperature. Emission spectra of denatured protein and fluorescence dye were recorded after the protein/dye solutions were heated to 75° C. for 2 minutes, and then cooled to room temperature immediately prior to data collection. The spectra shown in FIG. 44 are difference spectra that were calculated by subtracting the native protein fluorescence from the denatured protein fluorescence for each dye at 25° C. […]

The target of test [4] is T2, thrombin. The test is described as follows: Fluorescence signal of reporter dyes in 384-well thermal unfolding of thrombin. The following applies: 100 μM dye; 1 μM thrombin; 500+/−25 nm bandpass filter. More on the design: A stock human α-thrombin solution (1.56 mg/mL) from Enzyme Research Labs; purchased Enzyme Research Labs. How it is done: A 1 μM thrombin solution was mixed with 5-(4″-dimethylaminophenyl)-2-(4′-phenyl)oxazole sulfonate dye to yield a final concentration of 100 μM 5-(4″-dimethylaminophenyl)-2-(4′-phenyl)oxazole sulfonate. This solution was pipetted into all the wells of a 384-well black thermocycler plate with a final volume of 4 μL per well, and 3 μL of mineral oil was then added to each well. The fluorescence signal from each well was recorded in a closed, black-walld metal box using a cooled CCD camera (SenSys, Photometrix, Inc.) equipped with a 500+/−25 nm bandpass filter. An identical experiment was performed separately, using the same instrument, camera, and filters, except that a final concentration of 100 μM 1,8-ANS was used in place of 5-(4″-dimethylaminophenyl)-2-(4′-phenyl)oxazole sulfonate as the reporter dye.
The ratio of signals from 5-(4″-dimethylaminophenyl)-2-(4′-phenyl)oxazole sulfonate and 1,8-ANS was calculated by averaging the signals of all 384 wells on each plate, and dividing the average signal from 1,8-ANS into that for 5-(4″-dimethylaminophenyl)-2-(4′-phenyl)oxazole sulfonate.

Test [5] deals with D(II) FGF receptor 1. Nature of the test: Microplate thermal shift screen of biochemical conditions, D(II) FGF receptor 1 stability. The following applies: NaCl concentration increased from 0.1 to 0.5 M. The arrangement: species or system human. How it is done: The microplate thermal shift assay was used to simultaneously screen the effects of multiple biochemical conditions on D(II) FGF receptor 1 stability. The assays were performed by mixing 1 μL of D(II) FGFR1 (from a 500 μM concentrated stock in 50 mM HEPES pH 7.5) with 4 μL of each biochemical condition in wells of a 96-well polycarbonate microtiter plate. Final protein concentration after mixing was 100 μM and final 1,8-ANS concentration was 200 μM. Biochemical conditions were tested as follows: The pH's tested were 5 (Na acetate), 6 (MES), 7 (MOPS), 8 (HEPES), and 9 (CHES), with final buffer concentrations of 50 mM.
The salt concentrations tested were 0.1 or 0.5 M NaCl. Additives were tested in 50 mM MOPS, pH 7, 0.1 M NaCl, at final concentrations of 1 mM (EDTA, dithiothreitol), 10 mM (CaCl2, MgCl2, MgSO4, NiSO4),50 mM (arginine), 100 mM ((NH4)2SO4, LiSO4, Na2SO4, ZnSO4), 5% w/v (polyethylene glycol 6000), and 10% v/v glycerol.
Thermal denaturation profiles were generated as previously described for thrombin, aFGF, Factor D, and Factor Xa, by incremental heating of the microplate followed by a fluorescence reading after each temperature increase. Data were analyzed by non-linear least squares fitting as described previously.

Test [6] deals with T4, human α-thrombin (Homo sapiens, UniProt P00734).
T4 construct: A stock human α-thrombin solution (1.56 mg/mL) from Enzyme Research Labs; purchased Enzyme Research Labs
Nature of the test: Microplate thermal shift screen of biochemical conditions, thrombin stability. The following applies: NaCl concentration increased from 0 to 0.5 M. On the procedure: The microplate thermal shift assay was used, with four different fluorophores, to simultaneously screen the effects of multiple pH values, sodium chloride concentrations, and reduction-oxidation compounds on human α-thrombin stability. Thrombin solution was diluted to 1 μM in 50 mM Hepes, pH 7.5, NaCl at either 0.1 M or 0.5 M, 10 mM EDTA, 10 mM CaCl2, 10 mM dithiothreitol, […], and 100 μM 1,8-ANS, 10% (v/v) glycerol, or 0.1% (w/v) polyethylene glycol (PEG) 6000. Reaction volume was 100 μL.
Using equation (1), it is possible to estimate the NaCl binding to be ˜6 mM near the Tm (53° C.) in 50 mM Hepes pH 8.0 buffer (zero and 0.10 M NaCl).

The target of test [7] is T5, acidic fibroblast growth factor (aFGF) (Homo sapiens, UniProt P05230).
T5 construct: host or cells: E. coli
Nature of the test: Microplate thermal shift assay for ligands binding to aFGF, turbidity signal. The following applies: for ΔTm: relative to aFGF alone (317.15 °K); for Tm: turbidity signal, aFGF 0.25 mg/mL, ligand 47-200 μM. The text has this: The second therapeutic receptor tested in the microplate thermal shift assay was acidic fibroblast growth factor (aFGF), a growth factor that plays a key role in angiogenesis (Folkman, J. et al., J. Biol. Chem. 267:1.0931-10934 (1992)). A synthetic gene for this protein was purchased from R&D Systems (Minneapolis, Minn.), and was cloned and expressed in E. coli using methods similar to those described for basic fibroblast growth factor (bFGF) (Thompson, L. D. et al., Biochemistry 33:3831-3840 (1994); Pantoliano, M. W. et al., Biochemistry 33:10229-10248 (1994); Springer, B. A. et al., J. Biol. Chem. 269:26879-26884 (1994)). Recombinant aFGF was then purified by heparin-sepharose affinity chromatography as described (Thompson, L. D. et al., Biochemistry 33:3831-3840 (1994)). aFGF is also known to bind heparin/heparan, which is a cofactor for mitogenic activity. […] A microplate thermal assay of these compounds was set up in a way similar to that described above for human α-thrombin. […] The affinity constants covered a fairly broad range of binding affinities, with pentosan PSO4 showing the highest affinity.

In test [8] the target is T6, heparin binding site of human α-thrombin (Homo sapiens, UniProt P00734).
T6 construct: A stock human α-thrombin solution (1.56 mg/mL) from Enzyme Research Labs; purchased Enzyme Research Labs
The test is described as follows: Microplate thermal shift assay, ligands binding to the heparin binding site, turbidity signal. From the text:
Assays for ligands that bind to the heparin binding site of human α-thrombin are more difficult to perform than assays for ligands that bind to the active site of human α-thrombin. At the heparin binding site, no substrate is hydrolyzed, so no spectrophotometric signal can be amplified for instrumental detection. Heparin activity is usually estimated in biological clotting time assays. […] Thus, heparin binding to human α-thrombin represents the kind of challenge encountered with the vast majority of non-enzyme receptor/ligand binding events, which are commonly observed for hormone/receptor interactions, repressor/DNA interactions, neurotransmitter/receptor interactions, etc. Several heparin-like sulfated oligosaccharides and sulfated naphthalene compounds were assayed by the microplate thermal shift assay. Using the thermal shift assay, it was possible to use a single compound per well to quickly rank the compounds in order of increasing binding affinity, with Kd's ranging over three orders of magnitude (see Table 4). Like the experiment in Example 1, the thermal shift assay results agreed closely with the results obtained through an alternative method, which required a series of laborious (15 to 20 single determinations) fluorescence quench assays over a wide range of concentrations of low MW heparin (Olson, S. T. et al., J. Biol. Chem. 266:6342-6352 (1991)).

The test system of test [9] is human urokinase-type plasminogen activator (u-PA). Nature of the test: Miniaturized microplate thermal shift assay of urokinase. The following applies: 5 μL; MOPS pH 7, NaCl, 1,8-ANS. It is filed as binding. From the text: Another target molecule analyzed was human urokinase-type plasminogen activator (u-PA). U-PA enzymatically converts plasminogen into the active protease plasmin. U-PA is involved in tissue remodeling, cellular migration and metastases. The gene for u-PA was obtained from ATCC (Rockville, Md.) and modified to appropriately express active enzyme in E. coli. u-PA was cloned, overexpressed in E. coli, and purified using procedures similar to those described by Winkler et al. (Biochemistry 25:4041-4045 (1986)). […] The experiment was performed in the miniaturized format in 5 μL well volume. One μL of concentrated CMK-u-PA (13 g/L, 371.4 μM) was added to 4 μL of 62.5 mM MOPS, pH 7, 125 mM NaCl, and 250 μM 1,8-ANS, in multiple wells of a 96-well polycarbonate V-bottom microtiter plate. A thermal denaturation curve was generated as previously described for thrombin, aFGF, D(II)FGFR1, Factor D, and Factor Xa, by incremental heating of the microplate followed by a fluorescence reading after each temperature increase.

T5 sequence (P05230 whole entry, species assumed): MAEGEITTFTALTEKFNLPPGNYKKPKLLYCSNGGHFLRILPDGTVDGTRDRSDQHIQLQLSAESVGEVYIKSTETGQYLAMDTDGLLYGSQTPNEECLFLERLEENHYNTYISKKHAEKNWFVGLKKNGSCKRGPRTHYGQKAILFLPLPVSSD
T3 sequence (P00548 whole entry): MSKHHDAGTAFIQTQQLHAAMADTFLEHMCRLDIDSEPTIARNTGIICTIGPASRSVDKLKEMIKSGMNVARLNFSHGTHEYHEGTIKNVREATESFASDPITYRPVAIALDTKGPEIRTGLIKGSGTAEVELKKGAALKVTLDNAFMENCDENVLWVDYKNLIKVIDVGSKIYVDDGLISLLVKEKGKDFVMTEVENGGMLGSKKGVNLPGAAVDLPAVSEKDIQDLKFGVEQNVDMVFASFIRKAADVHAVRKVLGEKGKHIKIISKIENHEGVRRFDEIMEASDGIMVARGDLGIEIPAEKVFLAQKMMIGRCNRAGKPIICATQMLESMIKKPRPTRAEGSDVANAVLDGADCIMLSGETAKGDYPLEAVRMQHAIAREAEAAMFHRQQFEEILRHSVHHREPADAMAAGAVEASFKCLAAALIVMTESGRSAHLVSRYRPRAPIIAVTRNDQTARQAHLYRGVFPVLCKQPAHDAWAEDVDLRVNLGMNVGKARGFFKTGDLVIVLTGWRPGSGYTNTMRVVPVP

As to `O=C(NCCCNC(=O)[C@H](OS(=O)(=O)O)[C@@H](OS(=O)(=O)O)[C@H](O[C@@H]1O[C@H](COS(=O)(=O)O)[C@H](OS(=O)(=O)O)[C@H](OS(=O)(=O)O)[C@H]1OS(=O)(=O)O)[C@@H](COS(=O)(=O)O)OS(=O)(=O)O)[C@H](OS(=O)(=O)O)[C@@H](OS(=O)(=O)O)[C@H](O[C@@H]1O[C@H](COS(=O)(=O)O)[C@H](OS(=O)(=O)O)[C@H](OS(=O)(=O)O)[C@H]1OS(=O)(=O)O)[C@@H](COS(=O)(=O)O)OS(=O)(=O)O` [aprosulate], in [1], the “unfolding transition (Tm) in the presence of ligand” value is reported as “about 320 K”. For the same compound, the “increase of the unfolding transition” value in [1] (D(II) FGFR1 50 μM, 10 μL) was “about 8 K”.
Consider `[Na+]` [Na^+], for which the Kd in test [2] is 30000 ± 3000 µM.
Regarding `CN(C)c1ccc(-c2cnc(-c3ccc(S(=O)(=O)O)cc3)o2)cc1` [5-(4″-dimethylaminophenyl)-2-(4′-phenyl)oxazole sulfonate], the “fluorescence signal relative to 1,8-ANS on unfolding of pyruvate kinase” value in [3] was “approximately 3.2 fold”. Further, in test [4], the “signal relative to 1,8-ANS, average of 384 wells” value is listed as 4.25 times.
`[Cl-].[Na+]` [NaCl, sodium chloride]: the results for the ΔTm entry in [5] and in test [6] were “about 5 °C” and “about 12 °C”, respectively.
With EEEEEEEE, the Kd in test [7] (equation (1), estimated ΔHu 60.0 kcal/mole, ΔCpu 0.95 kcal/mole-°K, read-out: Kd at Tm) is 10.1 µM; in test [7] (estimate by equation (3), ΔHL −10.0 kcal/mole, read-out: Kd at 298° K Observed) it was 3.04 µM. Further, the ΔTm in test [7] was found to be 5.0 °K. Besides, the Tm in test [7] amounted to 322.15 °K.
`Cc1ccc(C(=O)Nc2ccc(S(=O)(=O)O)c3cc(S(=O)(=O)O)cc(S(=O)(=O)O)c23)cc1NC(=O)c1cccc(NC(=O)Nc2cccc(C(=O)Nc3cc(C(=O)Nc4ccc(S(=O)(=O)O)c5cc(S(=O)(=O)O)cc(S(=O)(=O)O)c45)ccc3C)c2)c1` [Suramin, suramin]: the ΔTm was 11.0 °K in test [8] (relative to thrombin alone (329.15 °K)) and 13.0 °K in test [7]. Besides, in test [8] (thermal shift assay, Table 4), the “affinity at Tm higher than the affinity of heparin 5000” value was 5700 fold. Further, the Tm stood at 340.15 °K in test [8] (turbidity signal, 11 μM thrombin, ligand 40-102 μM) and 330.15 °K in test [7].
As to glu-gly-arg-chloromethylketone [CMK], the “Tm of the CMK-u-PA complex” value in test [9] was 81 °C.

Source of the values: patent US6569631B1, “Microplate thermal shift assay for ligand development using 5-(4″dimethylaminophenyl)-2-(4′-phenyl)oxazole derivative fluorescent dyes” (3-Dimensional Pharmaceuticals, Inc., priority 1998, dated 2003).
